Assay type in all cases: cell-based, mouse
Assay [1] deals with α7 integrin (LacZ reporter in α7+/LacZ myotubes). Nature of the assay: Myotube α7 integrin FDG assay (Burkin assay in myotubes, 96-well). The following applies: for Burkin Assay in Myotubes, value relative to DMSO: SU9516 analogs, 96-well, N=3-6.
The subject of assay [2] is α7 integrin (LacZ reporter in α7βgal+/− myoblasts). Kind of assay: Myoblast α7+/LacZ integrin FDG assay (Burkin assay in myoblasts, 96-well). The following applies: 96-well; for Burkin Assay in Myoblasts, signal relative to DMSO: α7+/LacZ myoblasts; for Burkin Assay in Myoblasts, value relative to DMSO: SU9516 analogs, N=3-6.
The subject of assay [3] is β-galactosidase in CMV-LacZ C2C12 myoblasts. Nature of the assay: CMV-LacZ secondary screen in C2C12 myoblasts (β-Gal stabilizing assay). Particulars: for CMV-LACZ in Myoblasts (β-galactosidase activity relative to DMSO): CMV-LacZ C2C12 myoblasts; for CMV-LACZ in Myoblasts, value relative to DMSO: SU9516 analogs, C2C12 CMV-LacZ, N=2. The method, boiled down: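 β-gal stabilization was measured in C2C12 myoblasts or myotubes stably transfected with a CMV-driven LacZ construct, using the FDG β-gal assay. Compounds were tested in dose-response at 0.5, 1, 5, 10, 20 and 40 μM, with two replicates per point.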

Assay [4] has as its system β-galactosidase in CMV-LacZ C2C12 myotubes. Kind of assay: CMV-LacZ secondary screen in C2C12 myotubes (β-Gal stabilizing assay). The following applies: for CMV-LACZ in Myotubes, signal relative to DMSO: C2C12 CMV-LacZ myotubes, fold relative to DMSO; for CMV-LACZ in Myotubes, value relative to DMSO: SU9516 analogs, C2C12 CMV-LacZ, N=2. The method, boiled down:
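Stable CMV-LacZ C2C12 clone; six-point curve 0.5–40 μM; duplicates.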

`CCCCNc1nnc(Cc2ccc(Cl)cc2)c(=O)[nH]1` [MLS001215795-01]: the “Burkin Assay in Myotubes, α7 integrin LacZ reporter signal relative to DMSO” value in assay [1] (0.5 uM) was 1.291; in assay [1] (1 uM) it was 1.191; in assay [1] (5 uM), 0.863; in assay [1] (10 uM) it was 0.9107; in assay [1] (20 uM), 0.9147; in assay [1] (40 uM), 0.8873. Also, the “Burkin Assay in Myoblasts, signal relative to DMSO” value in assay [2] (0.5 uM) was found to be 1.143; in assay [2] (1 uM) it was 1.207; in assay [2] (5 uM), 0.932; in assay [2] (10 uM), 0.7776; in assay [2] (20 uM), 0.741; in assay [2] (40 uM), 0.7187. In addition, the “CMV-LACZ in Myoblasts (β-galactosidase activity relative to DMSO)” value in assay [3] (0.5 uM) is given as 0.8003; in assay [3] (1 uM), 1.1375; in assay [3] (5 uM) it was 1.0974; in assay [3] (10 uM) it was 0.8628; in assay [3] (20 uM) it was 0.8196; in assay [3] (40 uM), 0.8256. Moreover, the “CMV-LACZ in Myotubes, signal relative to DMSO” value amounted to 0.9363 in assay [4] (0.5 uM); 1.0207 in assay [4] (1 uM); 0.9309 in assay [4] (5 uM); 1.0250 in assay [4] (10 uM); 1.3929 in assay [4] (20 uM); 1.1035 in assay [4] (40 uM).

Turning to `COc1ccccc1C(=O)OCc1ccc2sc(C)nc2c1` [MLS001006798-01], the “Burkin Assay in Myotubes, α7 integrin LacZ reporter signal relative to DMSO” value is reported as 0.9345 in assay [1] (0.5 uM); 1.042 in assay [1] (1 uM); 1.06 in assay [1] (5 uM); 0.8906 in assay [1] (10 uM); 0.9746 in assay [1] (20 uM); 0.8886 in assay [1] (40 uM). Further, the “Burkin Assay in Myoblasts, signal relative to DMSO” value stood at 1.191 in assay [2] (0.5 uM); 0.9282 in assay [2] (1 uM); 1.133 in assay [2] (5 uM); 1.008 in assay [2] (10 uM); 1.118 in assay [2] (20 uM); 1.016 in assay [2] (40 uM). Also, the “CMV-LACZ in Myoblasts (β-galactosidase activity relative to DMSO)” value was 0.8334 in assay [3] (0.5 uM); 1.0326 in assay [3] (1 uM); 1.1509 in assay [3] (5 uM); 1.0189 in assay [3] (10 uM); 0.9622 in assay [3] (20 uM); 0.8263 in assay [3] (40 uM). Moreover, the “CMV-LACZ in Myotubes, signal relative to DMSO” value in assay [4] (0.5 uM) is given as 1.0419; in assay [4] (1 uM), 0.9648; in assay [4] (5 uM) it was 1.2236; in assay [4] (10 uM) it was 1.0267; in assay [4] (20 uM), 0.9953; in assay [4] (40 uM), 1.0976.

Consider `CC1(C)Cc2ccccc2-c2nc3n(c(=O)c21)CCS3` [MLS000711491-01], for which the “Burkin Assay in Myotubes, α7 integrin LacZ reporter signal relative to DMSO” value in assay [1] (0.5 uM) was determined as 1.07; in assay [1] (1 uM), 1.062; in assay [1] (5 uM) it was 0.9629; in assay [1] (10 uM) it was 0.9462; in assay [1] (20 uM), 0.671; in assay [1] (40 uM), 0.579. In addition, the “Burkin Assay in Myoblasts, signal relative to DMSO” value was found to be 1.214 in assay [2] (0.5 uM); 1.0159 in assay [2] (1 uM); 1.02 in assay [2] (5 uM); 1.024 in assay [2] (10 uM); 0.7949 in assay [2] (20 uM); 0.5793 in assay [2] (40 uM). In addition, the “CMV-LACZ in Myoblasts (β-galactosidase activity relative to DMSO)” value was 1.0889 in assay [3] (0.5 uM); 1.1060 in assay [3] (1 uM); 0.9088 in assay [3] (5 uM); 1.0199 in assay [3] (10 uM); 1.5063 in assay [3] (20 uM); 0.7800 in assay [3] (40 uM). In addition, the “CMV-LACZ in Myotubes, signal relative to DMSO” value worked out at 0.9495 in assay [4] (0.5 uM); 0.9095 in assay [4] (1 uM); 0.9993 in assay [4] (5 uM); 0.8645 in assay [4] (10 uM); 1.1318 in assay [4] (20 uM); 0.9929 in assay [4] (40 uM).

Turning to `Cc1ccc2c(c1)/C(=C/c1ccccc1)C(=O)N2` [MLS001202354-01], the “Burkin Assay in Myotubes, value relative to DMSO” value worked out at 0.8459 in assay [1] (0.5 uM); 0.9022 in assay [1] (1 uM); 0.9545 in assay [1] (5 uM); 1.069 in assay [1] (10 uM); 0.5824 in assay [1] (20 uM); 0.5785 in assay [1] (40 uM). In addition, the “Burkin Assay in Myoblasts, value relative to DMSO” value is on record as 1.077 in assay [2] (0.5 uM); 1.023 in assay [2] (1 uM); 1.036 in assay [2] (5 uM); 1.073 in assay [2] (10 uM); 0.516 in assay [2] (20 uM); 0.4275 in assay [2] (40 uM). Further, the “CMV-LACZ in Myoblasts, value relative to DMSO” value amounted to 1.2275 in assay [3] (0.5 uM); 0.9521 in assay [3] (1 uM); 0.9669 in assay [3] (5 uM); 0.9170 in assay [3] (10 uM); 0.8378 in assay [3] (20 uM); 0.7437 in assay [3] (40 uM). The “CMV-LACZ in Myotubes, value relative to DMSO” value in assay [4] (0.5 uM) amounted to 1.0676; in assay [4] (1 uM), 0.9200; in assay [4] (5 uM), 0.8910; in assay [4] (10 uM), 1.0340; in assay [4] (20 uM), 0.7000; in assay [4] (40 uM), 0.7863.

As for `Cn1c(O)c(C(C#N)=C2N=c3ccccc3=N2)c2ccccc21` [MLS000536064-01], the “Burkin Assay in Myotubes, α7 integrin LacZ reporter signal relative to DMSO” value is recorded as 0.9046 in assay [1] (0.5 uM); 0.9555 in assay [1] (1 uM); 0.9539 in assay [1] (5 uM); 1.131 in assay [1] (10 uM); 0.7642 in assay [1] (20 uM); 0.7073 in assay [1] (40 uM). For the same compound, the “Burkin Assay in Myoblasts, signal relative to DMSO” value in assay [2] (0.5 uM) is listed as 0.8028; in assay [2] (1 uM) it was 0.804; in assay [2] (5 uM), 0.7333; in assay [2] (10 uM), 1.047; in assay [2] (20 uM), 0.544; in assay [2] (40 uM), 0.4501. For the same compound, the “CMV-LACZ in Myoblasts (β-galactosidase activity relative to DMSO)” value is 0.9105 in assay [3] (0.5 uM); 0.7412 in assay [3] (1 uM); 2.0402 in assay [3] (5 uM); 1.3388 in assay [3] (10 uM); 2.5396 in assay [3] (20 uM); 2.4896 in assay [3] (40 uM). Moreover, the “CMV-LACZ in Myotubes, signal relative to DMSO” value is reported as 0.9705 in assay [4] (0.5 uM); 1.0389 in assay [4] (1 uM); 0.8894 in assay [4] (5 uM); 1.1027 in assay [4] (10 uM); 1.2344 in assay [4] (20 uM); 1.0233 in assay [4] (40 uM).

Values taken from patent US9980943B2, “Methods of treating muscular dystrophy” (BOARD OF REGENTS OF THE NEVADA SYSTEM OF HIGHER EDUCATION, …, priority 2013, dated 2018).
